Assay results: PubChem BioAssay (NCI)
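Following 48 hours of exposure in 96-well plates, responses at five concentrations were used to interpolate endpoints linearly. GI50: concentration for 50% inhibition of growth. Definition used: TGI = concentration required for complete inhibition of growth.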

How the values were obtained:
Assay in all cases: growth of human tumour cells (NCI), 48 h
COLO 205 colon = test system: COLO 205 colon
EKVX NSCLC = test system: EKVX NSCLC
HCC-2998 colon = test system: HCC-2998 colon
HCT-116 colon = test system: HCT-116 colon
HOP-92 NSCLC = test system: HOP-92 NSCLC
MALME-3M melanoma = test system: MALME-3M melanoma
MCF7 breast = test system: MCF7 breast
RPMI-8226 leukemia = test system: RPMI-8226 leukemia
SK-MEL-2 melanoma = test system: SK-MEL-2 melanoma
SR leukemia = test system: SR leukemia

Compound	GI50 (COLO 205 colon)	TGI (COLO 205 colon)	GI50 (EKVX NSCLC)	TGI (EKVX NSCLC)	GI50 (HCC-2998 colon)	TGI (HCC-2998 colon)	GI50 (HCT-116 colon)	TGI (HCT-116 colon)	GI50 (HOP-92 NSCLC)	TGI (HOP-92 NSCLC)	GI50 (MALME-3M melanoma)	TGI (MALME-3M melanoma)	GI50 (MCF7 breast)	TGI (MCF7 breast)	GI50 (RPMI-8226 leukemia)	TGI (RPMI-8226 leukemia)	GI50 (SK-MEL-2 melanoma)	TGI (SK-MEL-2 melanoma)	TGI (SR leukemia)
CC(C)[C@@]12C[C@@H](OC(=O)COC(=O)c3ccccc3)[C@@](C)(O1)[C@@H]1CC[C@@H](C)[C@H]1[C@@H]2OC(=O)/C=C/c1ccccc1	> 100 µM	> 100 µM	> 100 µM	> 100 µM	> 100 µM	> 100 µM	> 100 µM	> 100 µM	33.5 µM	> 100 µM	> 100 µM	> 100 µM	> 65 µM	> 100 µM	82.1 µM	> 100 µM	> 100 µM	> 100 µM	
COC(=O)C1c2cc3c(c(O)c2CCC1(C)O)C(=O)c1c(O)cc2c(c1C3=O)OC1OC2(C)C(O)C(N(C)C)C1O (centres undefined)		1.73 µM		0.774 µM				24.2 µM				1.17 µM		2.5 µM				18.8 µM	
CCCCCc1cc(/C=C2/N=C(c3ccc[nH]3)C=C2OC)[nH]c1C		0.0483 µM		1.4 µM		1.02 µM		< 0.0387 µM		0.0213 µM		0.275 µM		0.0988 µM					
CCOC(=O)C1=C(C)NC2SC(=O)/C(=C\c3cccc(Cl)c3)N2C1c1ccccc1 (centres undefined)	> 100 µM	> 100 µM	> 100 µM	> 100 µM	> 100 µM	> 100 µM	> 100 µM	> 100 µM	> 100 µM	> 100 µM	28.3 µM	> 100 µM	31.2 µM	> 100 µM	> 100 µM	> 100 µM	> 100 µM	> 100 µM	
Cc1ccc(C2=NN(c3ccc(S(=O)(=O)NC(=O)NCc4ccccc4)cc3)C(c3ccc(N(C)C)cc3)C2)c(C)c1 (centres undefined)	3.71 µM	10.4 µM			2.45 µM	5.65 µM	4 µM	14.9 µM	2.64 µM	8.58 µM	2.9 µM	9.14 µM	2.99 µM	31.2 µM	2.88 µM	10.6 µM	3.32 µM	8.85 µM	
CCOC(=O)CCc1c(C)c2c(OC)cc(OC)cc2oc1=O		> 100 µM		> 100 µM		> 100 µM		> 100 µM		> 100 µM		> 100 µM						> 100 µM	
CCN(N=O)C1C2(CCCC2)NC(=O)C12CCCC2 (centres undefined)				> 100 µM		> 100 µM		> 100 µM				> 100 µM				> 100 µM			> 100 µM
COc1ccc(-c2cc(=O)c3c(OC)c4ccoc4c(/C=C/C=O)c3o2)cc1	27.5 µM	80.4 µM			13.7 µM	27.8 µM	1.06 µM	3.43 µM	16.8 µM	98.7 µM	3.79 µM	8.3 µM	1.63 µM	> 100 µM	1.37 µM	5.29 µM	9.06 µM	84.6 µM	
CC(=O)[O-].CC(=O)[O-].O=C([CH-]C(=O)c1ccccc1)c1ccccc1.[Nd+3].[OH3+]	27.9 µM	> 100 µM	24.5 µM	76.5 µM	25 µM	> 100 µM	19.7 µM	> 100 µM	20.1 µM	63.8 µM	26.1 µM	85.2 µM			22.8 µM	> 100 µM	16.4 µM	50.7 µM	
NC(=O)c1c[nH]c2ncnc(N)c12	27 µM	> 100 µM	39 µM	> 100 µM	73 µM	> 100 µM	45.5 µM	> 100 µM			21.3 µM	71.1 µM	45.4 µM	> 100 µM	14.4 µM	50.7 µM	47.2 µM	> 100 µM	
O=C(O)C1=Cc2cccc3cccc(c23)C1=O		> 100 µM		> 100 µM		> 100 µM		> 100 µM				> 100 µM				> 100 µM		> 100 µM	> 100 µM
CC(=O)OC(C(=O)[O][Ge]([CH3])([CH3])[CH3])c1ccccc1 (centres undefined)	> 100 µM	> 100 µM	> 100 µM	> 100 µM	> 100 µM	> 100 µM	> 100 µM	> 100 µM	> 100 µM	> 100 µM	> 100 µM	> 100 µM							
CC(=O)Oc1ccc2c(=O)c(C(C)=O)coc2c1		> 100 µM		> 100 µM				> 100 µM		> 100 µM						> 100 µM		> 100 µM	> 100 µM
Cc1[nH]c(=O)n2c(C)nnc2c1C(=O)O		> 100 µM		> 100 µM				> 100 µM		> 100 µM		> 100 µM				> 100 µM		> 100 µM	> 100 µM
CCCCCOC(=O)Nc1nc(=O)n(C2OC(C)C(O)C2O)cc1F (centres undefined)					271 µM	> 10000 µM	> 10000 µM	> 10000 µM	> 10000 µM	> 10000 µM							> 10000 µM	> 10000 µM	
